This assay has as its target T1, amyloid beta (Aβ40) (Homo sapiens, UniProt P05067).
T1 construct: gene APP; Aβ40 peptide (40 amino acids)
Kind of assay: ThT fluorescence fibrillization assay with purified Aβ[…]), end-point confirmed by TEM. It counts as biochemical.

Experimental findings from PMC3832475, “Discovery of Dihydrochalcone as Potential Lead for Alzheimer’s Disease: In Silico and In Vitro Study” (PLoS ONE, 2013) are described below.

T1 sequence (P05067 672-711 limits assumed): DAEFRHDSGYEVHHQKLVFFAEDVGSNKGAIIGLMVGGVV

Turning to `O=C(CCc1ccccc1)c1ccccc1` [Dihydrochalcone], the half-inhibitory concentration (IC50) was around 2.46 µM.

Usually IC50 stands for the midpoint of a concentration-inhibition curve.
